In paper PMC2397535 (Breast Cancer Research : BCR, 2008):
Where two headings read alike, the source gives them in different places. Marks after values point to notes of the source that are not given here.

Experiments:
[1] = test system: panel of human breast cancer cell lines; assay: antiproliferative effect, panel of seven breast cancer cell lines (summary values); type: cell-based
HSP90α = conditions: read-out: IC50 (median inhibition concentration); cited from earlier work
[2] = test system: BT-474 breast cancer xenograft; assay: antitumor effect in BT-474 breast cancer xenograft model; type: in vivo, mice; conditions: for T/C / Tumor volume change: day 20
Experimental: (§1) Invasive procedures were performed under Forene anesthesia. […] The animals were fed food and water ad libitum.
(§2) Tumor growth and body weights were monitored at regular intervals. The xenograft tumor sizes were measured manually with calipers, and the tumor volume was estimated using the formula (w × l × h × π/6), where width (w), height (h), and length (l) are the three largest diameters.
(§3) When applicable, results are presented as mean ± standard error of the mean. Tumor and body weight data were analyzed by analysis of variance (ANOVA) with the post hoc Dunnett test for comparison of treatment versus control groups. The post hoc Tukey test was used for intragroup comparison. Statistical analysis was performed using GraphPad Prism 5 (GraphPad Software, Inc., San Diego, CA, USA). As a measure of efficacy, the %T/C value is calculated at the end of the experiment according to (Δtumor volumetreated/Δtumor volumecontrol) × 100, where Δtumor volumes represent the mean tumor volume on the evaluation day minus the mean tumor volume at the start of the experiment.

MAXF 1162 = assay: clonogenic (soft agar colony formation) assay, primary breast tumor; type: cell-based, human
MCF-7 = assay: antiproliferative effect (GI50), breast cancer cell line; type: cell-based; conditions: Homo sapiens, MCF7
MAXF 583 = assay: clonogenic (soft agar colony formation) assay, primary breast tumor; type: cell-based, human
phospho-AKT (Ser473) = assay: AKT phosphorylation in BT-474 xenografts (Western blot); type: in vivo, mice
Experimental: To assess total levels of AKT, phosphorylated AKT, β-tubulin, and ERBB2 in the cell extracts, 20 to 30 μg of total protein was resolved by the appropriate-percentage SDS-PAGE. The following antibodies were used for immunoblotting: anti-AKT (cat. no. 9272, rabbit polyclonal; Cell Signaling Technology, Inc.), anti-phospho-AKT (Ser473) (cat. no. 9271, rabbit polyclonal; Cell Signaling Technology, Inc.), anti-β-tubulin (cat. no. T 4026, mouse monoclonal, clone Tub2.1; Sigma-Aldrich, St. Louis, MO, USA), and anti-ERBB2 (cat. no. 28-0004, rabbit polyclonal; Zymed Laboratories Inc., now part of Invitrogen Corporation, Carlsbad, CA, USA). Bound antibodies on PVDF immunoblots were detected by Amersham ECL (Amersham, now part of GE Healthcare, Little Chalfont, Buckinghamshire, UK) or infrared fluorescence detection (LI-COR Biosciences, Lincoln, NE, USA).
as §1

MAXF 574 = assay: clonogenic (soft agar colony formation) assay, primary breast tumor; type: cell-based, human
MAXF 401 = assay: as above; type: cell-based, human
MDA-MB-231 = assay: antiproliferative effect (GI50), breast cancer cell line; type: cell-based; conditions: Homo sapiens
[3] = tolerability (body weight, survival) in BT-474 tumor-bearing nude mice; type: in vivo
Experimental: as §1, §2, §3

[4] = test system: human breast cancer explants; assay: clonogenic assay, six human breast cancer explants (summary values); type: cell-based

## CCNC(=O)c1noc(-c2cc(C(C)C)c(O)cc2O)c1-c1ccc(CN2CCOCC2)cc1 [NVP-AUY922]
[1]; seven cell lines, read-out: GI50 values, range over human breast cancer cell lines
  GI50: […]
[1]; six of the seven breast cancer cell lines, read-out: average GI50 value
  GI50: […]
HSP90α
  IC50: […]
[2]; 8.3 mg/kg once per week
  T/C: 95 percentage
[2]; 17 mg/kg once per week
  T/C: […]
  Tumor volume change: […]
[2]; 25 mg/kg once per week
  T/C: […]
  Tumor volume change: […]
[2]; 41 mg/kg once per week
  T/C: […]
  Tumor volume change: […]
[2]; 58 mg/kg once per week
  T/C: […]
  Tumor volume change: […]
[2]; once per week i.v., 8.3 to 17 mg/kg
  tumor response: did not result in a significant effect on tumor growth
[2]; once per week i.v., 25 to 58 mg/kg
  tumor response: highly efficacious
[2]; single i.v. dose 17 mg/kg
  tumor growth: indication of retarded tumor growth
[2]; single i.v. dose 25 mg/kg
  time without significant tumor growth after administration: […]
  tumor size at end corresponds to control tumor size this much earlier: […]
[2]; single i.v. dose 25 mg/kg, 21 days, P < 0.05
  tumor size versus control group at the end of the experiment: statistically significantly smaller
[2]; three times per week i.v., 10 mg/kg
  tumor response: did not result in a significant effect on tumor growth
[2]; three times per week i.v., 30 and 50 mg/kg
  tumor response: tumor regression
MAXF 1162
  IC70 (colony formation): 505 nM
MAXF 1162; Homo sapiens
  IC50: […]
MCF-7
  GI50: 8.8 ± 1.8 nM
MAXF 583
  IC70 (colony formation): 569 nM
MAXF 583; Homo sapiens
  IC50: 333 nM
phospho-AKT (Ser473); single dose 30 mg/kg i.v.
  phospho-AKT levels: reductions in phospho-AKT levels
phospho-AKT (Ser473); single i.v. dose 25 mg/kg, tumors dissected 6 hours later
  phospho-AKT levels: reduction in phospho-AKT levels
MAXF 574
  IC70 (colony formation): […]
MAXF 574; Homo sapiens
  IC50: […]
MAXF 401
  IC70 (colony formation): […]
MAXF 401; Homo sapiens, MAXF401
  IC50: […]
MDA-MB-231
  GI50: […]
[3]; single i.v. administration, 17 or 25 mg/kg
  body weights compared with vehicle: did not affect body weights
[3]; three times per week i.v., all dose levels (10, 30, 50 mg/kg)
  body weight: significant body weight loss
[4]; Homo sapiens, one highly resistant tumor explant, highest concentration evaluated, read-out: GI50
  GI50: […]
[4]; five out of the six human breast cancer explants
  average GI70: 379 nM
[4]; five out of the six human breast cancer explants, read-out: average GI50
  GI50: […]
